# Measured values from ChEMBL document CHEMBL4627386, “Bromo-spiroisoxazoline Alkaloids, Including an Isoserine Peptide, from the Caribbean Marine Sponge Aplysina lacunosa” (J Nat Prod, 2020).
# The source made the active and inactive calls. The calls are words filed in the database; no cut-off is given here.
# Target: Chymotrypsinogen A (Bos taurus) (UniProt P00766)
# Assay: Inhibition of bovine alpha-Chymotrypsin up to 25 ug/ml using Ala-Ala-Phe-p-nitroanilide as substrate preincubated for 15 mins followed by substrate addition and measured after 1 hr by colorimetric method
row,SMILES,inhibition
1,COC1=C(Br)[C@H](O)[C@@]2(C=C1Br)CC(C(=O)NCCCOc1c(Br)cc(C/C(=N\O)C(=O)NCCc3c[nH]cn3)cc1Br)=NO2,inactive
2,COC1=C(Br)[C@H](O)[C@@]2(C=C1Br)CC(C(=O)NCCc1c[nH]cn1)=NO2,inactive
3,COC(=O)C1=NO[C@]2(C=C(Br)C(OC)=C(Br)[C@@H]2O)C1,inactive
4,COc1c(Br)cc(C/C(=N\O)C(=O)NCCc2c[nH]cn2)c(O)c1Br,inactive
5,COC(=O)CNC(=O)C1=NO[C@]2(C=C(Br)C(OC)=C(Br)[C@@H]2O)C1,inactive

# More lines, now with the values ahead:
row,inhibition,SMILES
1,inactive,COC1=C(Br)[C@@H](O)[C@]2(C=C1Br)CC(C(=O)NCCCc1cnc(N)[nH]1)=NO2
2,inactive,COC(=O)C(O)CNC(=O)C1=NO[C@]2(C=C(Br)C(OC)=C(Br)[C@@H]2O)C1 (some centres not stated)
